Legend:
smallflower flatsedge = assay: Test B flood test smallflower flatsedge; format: in vivo, Cyperus difformis; details: for Plant response rating, S. Flatsedge: Postemergence (flood test)
Procedure, shortened: (§1)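 Plants were grown to the 2-leaf stage before treatment with test chemical, then held in a greenhouse for twelve to sixteen days. Injury was visually rated against untreated controls on a 0–10 scale, where 0 is no effect and 10 is complete control.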

cocklebur = assay: Test B pre/postemergence cocklebur; format: in vivo, Xanthium strumarium
Procedure, shortened: (§2)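 Test chemicals in a non-phytotoxic solvent mixture with surfactant were sprayed preemergence onto planted seeds and postemergence onto plants 2 to 18 cm tall (1- to 4-leaf stage). After twelve to sixteen days in a greenhouse, injury was visually rated against untreated controls from 0 (no effect) to 10 (complete control).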

sugar beet = assay: Test B pre/postemergence sugar beet; format: in vivo, Beta vulgaris
Procedure, shortened: as §2

bamyardgrass = assay: Test B flood test barnyardgrass; format: in vivo, Echinochloa crus-galli
Procedure, shortened: as §1

[1] = Postemergence (flood test species), Rate 125 g/ha, scale of 0 to 10 where 0 is no effect and 10 is complete control
[2] = Postemergence, Rate 62 g/ha, scale 0 to 10, 0 is no effect, 10 is complete control
[3] = Rate 250 g/ha, scale 0 to 10, 0 is no effect, 10 is complete control
[4] = Rate 500 g/ha, listed under Postemergence (flood test species), scale 0 to 10, 0 no effect, 10 complete control
[5] = Postemergence, Rate 125 g/ha, scale of 0 to 10 where 0 is no effect and 10 is complete control
[6] = Preemergence, Rate 62 g/ha, scale 0 to 10 (0 no effect, 10 complete control)
[7] = Preemergence, Rate 250 g/ha, scale of 0 to 10 where 0 is no effect and 10 is complete control
[8] = Preemergence, Rate 500 g/ha, scale 0 (no effect) to 10 (complete control)
[9] = Rate 500 g/ha, Postemergence, scale 0 to 10, 0 no effect, 10 complete control
[10] = Preemergence, Rate 125 g/ha, 0 is no effect, 10 is complete control
[11] = Rate 250 g/ha, Postemergence, scale 0 to 10, 0 is no effect, 10 is complete control
[12] = Rate 62 g/ha, flood test species, Pre-emergence, visual evaluation after twelve to sixteen days
[13] = Rate 125 g/ha, under heading Pre-emergence, flood test species, visual evaluation after twelve to sixteen days
[14] = Rate 250 g/ha, Pre-emergence (flood test species), scale 0 to 10, 0 is no effect, 10 is complete control
[15] = Rate 500 g/ha, Pre-emergence section of Table B, 0 to 10 scale (0 no effect, 10 complete control)
[16] = Postemergence, Rate 62 g/ha, scale of 0 to 10, 0 is no effect, 10 is complete control
[17] = Postemergence, Rate 500 g/ha, scale of 0 to 10 where 0 is no effect and 10 is complete control
[18] = Preemergence, Rate 125 g/ha, scale 0 to 10, 0 is no effect, 10 is complete control
[19] = Preemergence, Rate 500 g/ha, scale of 0 to 10 where 0 is no effect and 10 is complete control
[20] = Rate 250 g/ha, Postemergence, scale of 0 to 10 where 0 is no effect and 10 is complete control
[21] = Rate 62 g/ha, headed Pre-emergence (flood test species), scale 0 to 10 (0 no effect, 10 complete control)
[22] = Rate 125 g/ha, Pre-emergence, flood test species, scale 0 to 10 where 0 is no effect and 10 is complete control
[23] = Rate 250 g/ha, Pre-emergence, flood-test species, scale 0 to 10, 0 is no effect, 10 is complete control
[24] = Rate 500 g/ha, Pre-emergence, flood test species, scale 0 to 10 (0 no effect, 10 complete control)
[25] = Preemergence, Rate 62 g/ha, scale of 0 to 10 where 0 is no effect and 10 is complete control
[26] = Rate 62 g/ha, Postemergence, scale 0 to 10 (0 no effect, 10 complete control)
[27] = Rate 125 g/ha, Postemergence, scale of 0 to 10 where 0 is no effect and 10 is complete control
[28] = Rate 62 g/ha, Postemergence, scale of 0 to 10 where 0 is no effect and 10 is complete control
[29] = Rate 125 g/ha, Postemergence, scale 0 to 10
[30] = Rate 125 g/ha, Preemergence, scale of 0 to 10 where 0 is no effect and 10 is complete control
[31] = Rate 62 g/ha, Postemergence section, flood test species, scale of 0 to 10 where 0 is no effect and 10 is complete control
[32] = Rate 500 g/ha, listed under Postemergence (flood test species), scale 0 to 10
[33] = Preemergence, Rate 250 g/ha, scale 0 to 10, 0 is no effect, 10 is complete control
[34] = Preemergence, Rate 500 g/ha, scale 0 to 10 (0 no effect, 10 complete control)
[35] = Rate 500 g/ha, Postemergence, scale 0 to 10

SMILES: CC(C)N(C(=O)n1oc(=O)n(-c2cnn(C)c2Cl)c1=O)c1ccc(F)cc1 [Compound 97]
- S. Flatsedge plant response rating (smallflower flatsedge; [1]): 0
- S. Flatsedge plant response rating (smallflower flatsedge; [2]): 0
- Plant response rating, S. Flatsedge (smallflower flatsedge; [3]): 0
- S. Flatsedge plant response rating (smallflower flatsedge; [4]): 2
- Cocklebur plant response rating (cocklebur; [2]): 0
- Cocklebur plant response rating (cocklebur; [5]): 0
- Cocklebur plant response rating (cocklebur; Postemergence, Rate 250 g/ha, scale 0 to 10, 0 no effect, 10 complete control): 1
- Cocklebur plant response rating (cocklebur; [6]): 0
- Plant response rating, Cocklebur (cocklebur; Preemergence, Rate 125 g/ha, scale 0 to 10 (0 no effect, 10 complete control)): 0
- Plant response rating, Cocklebur (cocklebur; [7]): 0
- Cocklebur plant response rating (cocklebur; [8]): 0
- Cocklebur plant response rating (cocklebur; [9]): 1
- Sugarbeets plant response rating (sugar beet; [2]): 0
- Sugarbeets plant response rating (sugar beet; [5]): 0
- Sugarbeets plant response rating (sugar beet; [6]): 0
- Sugarbeets plant response rating (0 to 10 scale) (sugar beet; [10]): 3
- Plant response rating, Sugarbeets (sugar beet; [7]): 5
- Sugarbeets plant response rating (sugar beet; [8]): 9
- Plant response rating, Sugarbeets (sugar beet; [11]): 0
- Sugarbeets plant response rating (sugar beet; [9]): 0
- Barnyardgrass plant response rating (bamyardgrass; [2]): 0
- Barnyardgrass plant response rating (bamyardgrass; Rate 125 g/ha, Postemergence section (flood test species), scale 0 to 10, 0 no effect, 10 complete control): 0
- Barnyardgrass plant response rating (bamyardgrass; [4]): 0
- Barnyardgrass plant response rating (bamyardgrass; flood test, listed under Postemergence, Rate 250 g/ha, scale 0 to 10, 0 no effect, 10 complete control): 0

SMILES: CC(C)N(C(=O)n1oc(=O)n(CCC2OCCO2)c1=O)c1ccccc1 [Compound 560]
- Plant response rating, S. Flatsedge (0 to 10 scale, 0 is no effect, 10 is complete control) (smallflower flatsedge; [12]): 0
- S. Flatsedge plant response rating (0 to 10 scale, 0 is no effect, 10 is complete control) (smallflower flatsedge; [13]): 0
- S. Flatsedge plant response rating (smallflower flatsedge; [14]): 0
- S. Flatsedge plant response rating (smallflower flatsedge; [15]): 0
- Cocklebur plant response rating (cocklebur; [16]): 0
- Cocklebur plant response rating (cocklebur; Postemergence, Rate 125 g/ha, scale 0 to 10, 0 is no effect, 10 is complete control): 0
- Plant response rating, Cocklebur (cocklebur; [17]): 0
- Cocklebur plant response rating (cocklebur; [6]): 0
- Cocklebur plant response rating (cocklebur; [18]): 0
- Cocklebur plant response rating (0 to 10 scale) (cocklebur; Preemergence, Rate 250 g/ha): 0
- Cocklebur plant response rating (cocklebur; [19]): 0
- Plant response rating, Cocklebur (cocklebur; [20]): 0
- Sugarbeets plant response rating (sugar beet; [16]): 0
- Plant response rating, Sugarbeets (sugar beet; [17]): 6
- Sugarbeets plant response rating (sugar beet; [6]): 0
- Sugarbeets plant response rating (sugar beet; [18]): 0
- Sugarbeets plant response rating (0 to 10 scale) (sugar beet; Preemergence, Rate 250 g/ha): 3
- Sugarbeets plant response rating (sugar beet; [19]): 7
- Plant response rating, Sugarbeets (sugar beet; [20]): 0
- Plant response rating, Barnyardgrass (0 to 10 scale, 0 is no effect, 10 is complete control) (bamyardgrass; [12]): 0
- Barnyardgrass plant response rating (0 to 10 scale, 0 is no effect, 10 is complete control) (bamyardgrass; [13]): 0
- Barnyardgrass plant response rating (bamyardgrass; [14]): 0
- Barnyardgrass plant response rating (bamyardgrass; [15]): 0

SMILES: CC(C)N(C(=O)n1oc(=O)n(Cc2nnsc2Cl)c1=O)c1ccccc1 [Compound 321]
- S. Flatsedge plant response rating (smallflower flatsedge; [21]): 0
- S. Flatsedge plant response rating (smallflower flatsedge; [22]): 0
- S. Flatsedge plant response rating (smallflower flatsedge; [23]): 0
- S. Flatsedge plant response rating (smallflower flatsedge; [24]): 0
- Cocklebur plant response rating (cocklebur; [25]): 0
- Cocklebur plant response rating (0 to 10 scale) (cocklebur; Preemergence, Rate 125 g/ha): 0
- Cocklebur plant response rating (cocklebur; [7]): 0
- Cocklebur plant response rating (cocklebur; [19]): 0
- Cocklebur plant response rating (cocklebur; [26]): 0
- Cocklebur plant response rating (cocklebur; [27]): 0
- Plant response rating, Cocklebur (cocklebur; [20]): 0
- Cocklebur plant response rating (cocklebur; [9]): 0
- Sugarbeets plant response rating (sugar beet; [25]): 0
- Sugarbeets plant response rating (0 to 10 scale) (sugar beet; Preemergence, Rate 125 g/ha): 0
- Sugarbeets plant response rating (sugar beet; [7]): 0
- Sugarbeets plant response rating (sugar beet; [19]): 0
- Sugarbeets plant response rating (sugar beet; [26]): 0
- Sugarbeets plant response rating (sugar beet; [27]): 0
- Plant response rating, Sugarbeets (sugar beet; [20]): 5
- Barnyardgrass plant response rating (bamyardgrass; [21]): 0
- Barnyardgrass plant response rating (bamyardgrass; [22]): 0
- Barnyardgrass plant response rating (bamyardgrass; [23]): 0
- Barnyardgrass plant response rating (bamyardgrass; [24]): 0

SMILES: CCCCc1ccc(N(C(=O)n2oc(=O)n(-c3ccccc3C)c2=O)C(C)C)cc1 [Compound 229]
- S. Flatsedge plant response rating (smallflower flatsedge; [21]): 0
- S. Flatsedge plant response rating (smallflower flatsedge; [22]): 0
- S. Flatsedge plant response rating (smallflower flatsedge; [23]): 0
- S. Flatsedge plant response rating (smallflower flatsedge; [24]): 0
- Cocklebur plant response rating (cocklebur; [25]): 0
- Cocklebur plant response rating (cocklebur; [7]): 0
- Plant response rating, Cocklebur (cocklebur; [19]): 0
- Cocklebur plant response rating (cocklebur; [28]): 0
- Cocklebur plant response rating (cocklebur; [29]): 0
- Cocklebur plant response rating (cocklebur; [30]): 0
- Plant response rating (0 to 10; 0 is no effect, 10 is complete control), Cocklebur (cocklebur; Rate 250 g/ha, Postemergence): 0
- Cocklebur plant response rating (cocklebur; [9]): 0
- Sugarbeets plant response rating (sugar beet; [25]): 0
- Sugarbeets plant response rating (sugar beet; [7]): 0
- Plant response rating, Sugarbeets (sugar beet; [19]): 0
- Sugarbeets plant response rating (sugar beet; [28]): 0
- Sugarbeets plant response rating (sugar beet; [29]): 0
- Sugarbeets plant response rating (sugar beet; [30]): 0
- Plant response rating (0 to 10; 0 is no effect, 10 is complete control), Sugarbeets (sugar beet; Rate 250 g/ha, Postemergence): 0
- Sugarbeets plant response rating (sugar beet; [9]): 0
- Barnyardgrass plant response rating (bamyardgrass; [21]): 0
- Barnyardgrass plant response rating (bamyardgrass; [22]): 0
- Barnyardgrass plant response rating (bamyardgrass; [23]): 0
- Barnyardgrass plant response rating (bamyardgrass; [24]): 0

SMILES: C=CCn1c(=O)on(C(=O)N(c2ccc(F)cc2)C2CC2)c1=O [Compound 154]
- S. Flatsedge plant response rating (smallflower flatsedge; [1]): 0
- S. Flatsedge plant response rating (smallflower flatsedge; Pre-emergence, Rate 1000 g/ha, scale 0 to 10 (0 no effect, 10 complete control)): 0
- S. Flatsedge plant response rating (smallflower flatsedge; [31]): 0
- Plant response rating, S. Flatsedge (smallflower flatsedge; [3]): 0
- S. Flatsedge plant response rating (smallflower flatsedge; [23]): 0
- S. Flatsedge plant response rating (smallflower flatsedge; [32]): 0
- S. Flatsedge plant response rating (smallflower flatsedge; [24]): 0
- S. Flatsedge plant response rating (smallflower flatsedge; Rate 2000 g/ha, Pre-emergence (as headed), scale 0 to 10): 0
- Cocklebur plant response rating (cocklebur; [5]): 0
- Cocklebur plant response rating (cocklebur; [6]): 0
- Cocklebur plant response rating (0 to 10 scale) (cocklebur; [10]): 0
- Cocklebur plant response rating (cocklebur; [33]): 0
- Cocklebur plant response rating (cocklebur; [34]): 0
- Cocklebur plant response rating (cocklebur; [28]): 0
- Plant response rating, Cocklebur (cocklebur; [11]): 0
- Cocklebur plant response rating (cocklebur; [35]): 2
- Sugarbeets plant response rating (sugar beet; [5]): 0
- Sugarbeets plant response rating (sugar beet; [6]): 0
- Sugarbeets plant response rating (0 to 10 scale) (sugar beet; [10]): 0
- Sugarbeets plant response rating (sugar beet; [33]): 4
- Sugarbeets plant response rating (sugar beet; [34]): 6
- Sugarbeets plant response rating (sugar beet; [28]): 0
- Plant response rating, Sugarbeets (sugar beet; [11]): 0
- Sugarbeets plant response rating (sugar beet; [35]): 0
- Barnyardgrass plant response rating (bamyardgrass; [1]): 0
- Barnyardgrass plant response rating (bamyardgrass; [31]): 0
- Plant response rating, Barnyardgrass (bamyardgrass; Rate 250 g/ha, Postemergence (flood test), scale 0 to 10, 0 is no effect, 10 is complete control): 0
- Barnyardgrass plant response rating (bamyardgrass; [23]): 0
- Plant response rating, Barnyardgrass (bamyardgrass; Rate 500 g/ha, headed Pre-emergence (flood test species), scale 0 to 10 (0 no effect, 10 complete control)): 0
- Barnyardgrass plant response rating (bamyardgrass; [32]): 0
- Barnyardgrass plant response rating (bamyardgrass; Rate 1000 g/ha, Pre-emergence (as headed), scale 0 to 10): 0
- Barnyardgrass plant response rating (bamyardgrass; Rate 2000 g/ha, Pre-emergence (as headed), scale 0 to 10, 0 no effect, 10 complete control): 0
